From patent US20230331674A1 (priority 2020, published 2023)

How the values were obtained:
[1] = biological target: mAChE (murine acetylcholinesterase) (Mus musculus (Mouse), UniProt P21836); assay type: biochemical; conditions: screening at 10 μM; n.i. = no inhibiton
Text: To determine the blank value (b), phosphate-buffered solution replaced the enzyme solution.

[2] = test system: cryopreserved human hepatocytes; test: Metabolite identification in cryopreserved hepatocytes; assay type: in vitro ADME; conditions: 120 min, HPLC-MS
Experimental: Principal Phase I (oxidative) and Phase II (conjugative) metabolites have been detected and characterized following previously described procedure (Obach R. S. et al. J. Pharmacol. Exp. Ther. 1997, 283, 46-58). Briefly, the test compound 2 ([…]) was incubated at 37° C. in cryopreserved human hepatocytes (0.7 million cells/mL) for 120 min. Samples were taken at time 0 and the end of the incubation (2 h), respectively. A control sample (no test compound added) was also prepared and incubated for the same period of time. After the reaction was stopped by addition of acetonitrile, the supernatants were subjected to HPLC-MS analysis. Separation of analytes was achieved using Acquity HSS T3 column (100×2.1 mm, 1.8 μm, Waters). The sample solutions-supernatants (5 μL) were injected and eluted at a flow rate of 0.5 mL min-1, using a linear gradient of mobile phase A (0.1% formic acid in water) and mobile phase B (0.1% formic acid in MeCN). The gradient for mobile phase B was: 0-1.0 min, 5%; 1.0-7.0 min, 5%-80%; 7.0-7.5 min, 80%; 7.5-8.0 min, 80%-5%; 8.0-10.0 min, 5%. […] Retention times and the respective MS and MS/MS spectra of the species detected in the incubated sample and not in time-zero or blank sample were identified and recorded.

Chain of mAChE (murine acetylcholinesterase) (P21836 32-614): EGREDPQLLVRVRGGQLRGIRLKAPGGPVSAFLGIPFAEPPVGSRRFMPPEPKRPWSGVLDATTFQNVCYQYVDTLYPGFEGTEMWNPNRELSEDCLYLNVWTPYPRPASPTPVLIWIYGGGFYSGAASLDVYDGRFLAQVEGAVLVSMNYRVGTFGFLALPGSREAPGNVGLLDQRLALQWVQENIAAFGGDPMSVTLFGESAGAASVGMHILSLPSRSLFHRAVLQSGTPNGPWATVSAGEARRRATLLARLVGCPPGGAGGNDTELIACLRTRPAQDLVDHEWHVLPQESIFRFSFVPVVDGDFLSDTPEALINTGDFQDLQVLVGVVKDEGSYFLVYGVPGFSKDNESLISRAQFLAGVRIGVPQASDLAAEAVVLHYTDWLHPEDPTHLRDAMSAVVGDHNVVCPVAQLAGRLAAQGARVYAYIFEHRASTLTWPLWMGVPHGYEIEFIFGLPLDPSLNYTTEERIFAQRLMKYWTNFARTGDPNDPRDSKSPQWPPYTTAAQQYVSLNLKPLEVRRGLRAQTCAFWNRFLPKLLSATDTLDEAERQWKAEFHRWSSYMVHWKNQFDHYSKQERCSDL

COCCN(CC1CCCN(Cc2ccccc2)C1)S(=O)(=O)c1ccc2ccccc2c1 (racemic) [(±)-N-((1-benzylpiperidin-3-yl)methyl)-N-(2-methoxyethyl)naphthalene-2-sulfonamide]
IC50 + STD (μM) or % inhibition at 10 μM mAChE [1]: n.i.
Possible metabolites [2]: N-debenzylated, demethylated, and a demethylated+glucoronide products
